Reference: patent publication US20140322348A1 (priority 2011, published 2014)

How the values were obtained:
grapevine downy mildew = assay: Vineyard trial against grapevine downy mildew, foliar sprays; settings: seven days after third application, rates TG 0.3%, potassium phosphite 0.4%, Liquid Copper 0.25%; for % infected leaf area: grape "Superior"
Experimental: The Timorex Gold or synthetic fungicidal composition were diluted prior to use. At the outset, pre-harvest plants were moderately infected with downy mildew. The crops studied were drip irrigated and fertilized according to known recommendations. Treatments were applied in a randomized complete block, with 4 replications per treatment. Plot size in each instance was 8 m length. Fungicidal treatment was applied using backpack sprayer equipped with a mist blower (STHIL 340 with endpiece 3) to spray a volume of 100 liter/dunam (1000 liter/ha) Foliar sprays were applied on days 1, 10 and 17. The plants were inspected on day 1 (prior to spraying) and days 11, 18 and 24. At the beginning of the experiment, for each group, 5 plant extremities having single leafs were marked. The percent of coverage of downy mildew on a five square cm area was estimated before marking in order to estimate the efficacy in curing infection and after marking to estimate the efficacy in preventing infection. To analyze the results, an arc-sin transformation was performed on the raw data, and analysis of variance (ANOVA) using the SAS GLM procedure was applied to the transformed data. The Tukey-Kramer Test was applied to determine whether differences between treatments were significant.

cucumber downy mildew = assay: Greenhouse trial against cucumber downy mildew, foliar sprays; settings: rates TG 0.5%, potassium phosphite 0.4%
Experimental: Combinations of TTO (supplied as Timorex Gold®, 23.8% TTO) and a synthetic fungicidal composition (supplied Canon® 50 from Luxembourg Industries Ltd., Israel, containing 780 g potassium phosphite (equivalent to 500 g phosphorous acid) per liter) were tested against cucumber downy mildew. Greenhouse-grown plants were drip irrigated and fertilized according to known recommendations for this crop. Treatments were applied in a randomized complete block, with 5 replications per treatment. Plot size in each instance was of 7 m length, containing 14 plants. The TTO or potassium phosphite composition were diluted prior to use. Fungicidal treatment was applied using backpack sprayer equipped with a mist blower (STHIL 340) to spray a at a rate of 350 cc/dunam. Three foliar sprays were applied at 11-13 day intervals. Disease severity was evaluated by determining the leaf area covered with downy mildew (disease severity) on each of 20 leaves randomly selected per each replicate. […] To analyze the results, an arc-sin transformation was performed on the raw data, and analysis of variance (ANOVA) using the SAS GLM procedure was applied to the transformed data. The Tukey-Kramer Test was applied to determine whether differences between treatments were significant.

potassium phosphite
% infected leaf area (grapevine downy mildew; Curative): 28.25%
Efficacy (%) (grapevine downy mildew; Curative): 25.2%
% infected leaf area (grapevine downy mildew; Protectant): 14%
Efficacy (%) (grapevine downy mildew; Protectant): 62.9%
Severity % infected leaf area (cucumber downy mildew; 11 days after third application): 1.4%
Efficacy (%) (cucumber downy mildew; Incidence, seven days after third application): 74.4%
Incidence % leaves infected (cucumber downy mildew; Seven days after third application): 23.7%
Efficacy (%) (cucumber downy mildew; Severity, 11 days after third application): 92.1%
